Test results published in patent US20190084939A1, “ANALOGS OF FEXARAMINE AND METHODS OF MAKING AND USING” (Salk Institute for Biological Studies, priority 2014, published 2019).
pEC50: −log10 of the molar value. “Also recorded” adds a separate entry of the source.

How the values were obtained:
DIO mice = test: hyperinsulinemic-euglycemic clamp in DIO mice; format: in vivo
Procedure: FIGS. 15I-15K are a line graph and two bar graphs showing the effect of fexaramine treatment on body weight, insulin-stimulated GDR, and fasting insulin levels. Mice were fed HFD for 14 weeks, and then administered daily oral injections of vehicle or fexaramine (100 mg/kg) for 3 weeks with HFD. The mice treated with fexaramine were initially heavier (by 2-3 grams). Three weeks after treatment, a clamp study was performed on the mice. Data represent the mean±STD. Statistical analysis was performed with the Student's t test (*p<0.05, **p<0.01).

Human FXR full length = target: T1, Human FXR full length (Homo sapiens, UniProt Q96RI1); test: FXR activity screen, luciferase reporter in transfected CV-1 cells; format: cell-based; conditions: fexaramine control in the retest; read-out: Fex EC50
T1 construct: Human FXR full length and RXR full length was obtained from Ronald Evans' laboratory; expressed in transfected cells; host or cells: CV-1 cells
T1 sequence (Q96RI1 1-476 isoform Q96RI1-1): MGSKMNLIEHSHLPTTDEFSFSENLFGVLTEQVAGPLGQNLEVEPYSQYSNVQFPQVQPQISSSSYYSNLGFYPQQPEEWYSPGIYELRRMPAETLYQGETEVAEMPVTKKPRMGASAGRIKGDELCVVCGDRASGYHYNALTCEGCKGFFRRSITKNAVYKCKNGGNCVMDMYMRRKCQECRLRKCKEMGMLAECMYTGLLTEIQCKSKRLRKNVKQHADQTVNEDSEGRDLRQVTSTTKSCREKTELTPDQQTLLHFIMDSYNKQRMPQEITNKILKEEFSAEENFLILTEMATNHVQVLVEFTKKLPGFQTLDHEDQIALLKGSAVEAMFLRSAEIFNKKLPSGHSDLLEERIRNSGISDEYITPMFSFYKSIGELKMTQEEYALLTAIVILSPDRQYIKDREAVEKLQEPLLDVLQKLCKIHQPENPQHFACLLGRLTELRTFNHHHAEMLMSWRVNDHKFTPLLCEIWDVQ
T1 sequence (P19793 1-462 partner): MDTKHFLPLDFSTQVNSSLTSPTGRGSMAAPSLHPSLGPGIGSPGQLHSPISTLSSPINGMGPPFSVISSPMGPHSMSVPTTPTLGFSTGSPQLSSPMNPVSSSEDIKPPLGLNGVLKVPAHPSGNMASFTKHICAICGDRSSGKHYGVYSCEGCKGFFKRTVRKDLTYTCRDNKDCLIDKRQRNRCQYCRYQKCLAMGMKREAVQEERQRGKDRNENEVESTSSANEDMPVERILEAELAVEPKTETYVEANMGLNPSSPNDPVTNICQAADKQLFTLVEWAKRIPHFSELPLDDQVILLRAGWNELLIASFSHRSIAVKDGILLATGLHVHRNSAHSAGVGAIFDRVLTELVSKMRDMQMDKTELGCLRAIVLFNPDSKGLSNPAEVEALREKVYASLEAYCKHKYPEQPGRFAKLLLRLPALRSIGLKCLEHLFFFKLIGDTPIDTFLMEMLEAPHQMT
Summary of the method: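 CV-1 cells in charcoal-stripped serum, transfected with full-length human FXR, RXR, FXRE-luciferase reporter and β-Gal; 48 h expression, then 24 h compound (0.001–100 μM, quadruplicate, 1:1000 DMSO dilution). Luciferase normalized to β-galactosidase; fold induction vs untreated, efficacy relative to fexaramine, EC50 by non-linear regression.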

[1] = test system: serum bile acid composition; test: serum bile acid composition by mass spectrometry in HFD mice; format: in vivo; conditions: 100 mg/kg/day per os 5 week
Procedure: Mice fed a HFD for 14 weeks were maintained on a HFD and treated with vehicle or fexaramine (100 mg/kg/day per os for 5 week). Serum bile acid composition was determined by mass spectrometry. N.D not determined.

[2] = test system: FXR target gene expression; test: FXR target gene expression (qPCR) in tissues after PO or IP fexaramine; format: in vivo, C57BL/6J mice; conditions: for FXR target gene (SHP) expression in liver and kidney, IP versus PO / FXR target genes (IBABP, OSTα, FGF15) in the intestine / FXR target genes in liver or kidney: 100 mg/kg; for FXR target genes (IBABP, OSTα, FGF15) in the intestine / FXR target genes in liver or kidney: PO
Procedure: FIGS. 1A-1C are a comparative expression chart and two bar charts, respectively, illustrating increased levels of FXR target gene expression in the intestine relative to expression in the liver and kidney. 8 week-old C57BL/6J mice were treated with vehicle or fexaramine (100 mg/kg) via oral (PO) or intraperitoneal (IP) injection for three days (FIGS. 1A-1B) or five days (FIG. 1C).
FXR target gene expression was analyzed by qPCR. Gene expression was normalized against a vehicle-treated group.
Upon exploration of the in vivo effects of fexaramine (Fex) administration, it was discovered that due to ineffectual absorption, oral (PO) and intraperitoneal (IP) drug delivery produced very different effects (FIGS. 1D and 1E).

With `COC(=O)/C=C/c1cccc(N(Cc2ccc(-c3ccc(N(C)C)cc3)cc2)C(=O)C2CCCCC2)c1` [Fexaramine, fexaramine] the “insulin-mediated suppression of HGP” value (DIO mice; versus control DIO mice) was “marked increase”, the “basal HGP, GDR, IS-GDR, FFA suppression and fasting insulin levels” value (DIO mice; weight-matched cohorts) was “No differences” and the pEC50 (Human FXR full length) was 7.20. The “Bile Acid Composition (%): CA” value [1] was 7.51%, the “Bile Acid Composition (%): CDCA” value [1] was 2.51% and the “Bile Acid Composition (%): DCA” value [1] was 7.67%. The “Bile Acid Composition (%): GLCA” value [1] was 0.51%, the “Bile Acid Composition (%): HDCA” value [1] was 0.36% and the “Bile Acid Composition (%): LCA” value [1] was 28.13%. For the same molecule, the “Bile Acid Composition (%): T-UDCA” value [1] was 3.07%, the “Bile Acid Composition (%): T-beta MCA” value [1] was 29.16% and the “Bile Acid Composition (%): TCA” value [1] was 12.23%. For the same molecule, the “Bile Acid Composition (%): TCDCA” value [1] was 1.13%, the “Bile Acid Composition (%): TDCA” value [1] was 1.02% and the “Bile Acid Composition (%): UDCA” value [1] was 0.05%. For the same molecule, the “Bile Acid Composition (%): omega MCA” value [1] was 6.65%, the “FXR target gene (SHP) expression in liver and kidney, IP versus PO” value [2] was “increases” and the “FXR target gene (SHP) expression in liver and kidney, IP versus PO” value ([2]; listed as Fex) was “only seen in liver and kidney after IP treatment”. For the same molecule, the “FXR target genes (IBABP, OSTα, FGF15) in the intestine” value [2] was “substantially enhances”, the “FXR target genes in liver or kidney” value [2] was “intestinally-restricted; also recorded: not in the liver or kidney” and the “FXR target genes (IBABP, OSTα, FGF15) in the intestine” value ([2]; listed as Fex) was “induced multiple FXR target genes in the intestine”. For the same molecule, the “FXR target genes in liver or kidney” value ([2]; listed as Fex) was “failed to affect” and the “induction of FXR target gene SHP throughout the intestine” value ([2]; acute PO and IP, 100 mg/kg for five days) was “robust induction”.
